The values that follow come from ChEMBL document CHEMBL1208760, “New antifungal peptides. Synthesis, bioassays and initial structure prediction by CD spectroscopy” (2010).

Holding throughout (format): functional
What all share (settings): read-out: GI

Experiment [1] has as its system Cryptococcus neoformans. As to the kind of experiment: Antifungal activity against Cryptococcus neoformans ATCC 32264 assessed as inhibition of fungal growth at 100 uM.
The subject of experiment [2] is Candida albicans. As to the kind of experiment: Antifungal activity against Candida albicans ATCC 10231 assessed as inhibition of fungal growth at 50 uM.
In experiment [3] the test system is Cryptococcus neoformans. As to the kind of experiment: Antifungal activity against Cryptococcus neoformans ATCC 32264 assessed as inhibition of fungal growth at 12.5 uM.
In experiment [4] the test system is Candida albicans. Kind of experiment: Antifungal activity against Candida albicans ATCC 10231 assessed as inhibition of fungal growth at 100 uM.
For experiment [5], the system named is Candida albicans. As to the kind of experiment: Antifungal activity against Candida albicans ATCC 10231 assessed as inhibition of fungal growth at 200 uM.
Experiment [6] has as its system Cryptococcus neoformans. As to the kind of experiment: Antifungal activity against Cryptococcus neoformans ATCC 32264 assessed as inhibition of fungal growth at 25 uM.
The test system of experiment [7] is Candida albicans. As to the kind of experiment: Antifungal activity against Candida albicans ATCC 10231 assessed as inhibition of fungal growth at 6.25 uM.
In experiment [8] the test system is Candida albicans. As to the kind of experiment: Antifungal activity against Candida albicans ATCC 10231 assessed as inhibition of fungal growth at 12.5 uM.
The test system of experiment [9] is Cryptococcus neoformans. Kind of experiment: Antifungal activity against Cryptococcus neoformans ATCC 32264 assessed as inhibition of fungal growth at 50 uM.
For experiment [10], the system named is Cryptococcus neoformans. As to the kind of experiment: Antifungal activity against Cryptococcus neoformans ATCC 32264 assessed as inhibition of fungal growth at 6.25 uM.
The test system of experiment [11] is Cryptococcus neoformans. Kind of experiment: Antifungal activity against Cryptococcus neoformans ATCC 32264 assessed as inhibition of fungal growth at 200 uM.
Experiment [12] relates to Candida albicans. Kind of experiment: Antifungal activity against Candida albicans ATCC 10231 assessed as inhibition of fungal growth at 25 uM.

For the compound `CC[C@H](C)[C@H](NC(=O)[C@H](CCCCN)NC(=O)[C@@H](NC(=O)[C@H](CCC(N)=O)NC(=O)[C@H](CCCNC(=N)N)NC(=O)[C@H](Cc1c[nH]c2ccccc12)NC(=O)[C@H](CCCNC(=N)N)NC(=O)[C@H](Cc1ccccc1)NC(=O)[C@@H](N)Cc1cnc[nH]1)[C@@H](C)CC)C(=O)N[C@@H](Cc1c[nH]c2ccccc12)C(=O)N[C@@H](Cc1ccccc1)C(=O)N[C@@H](CCC(N)=O)C(=O)N[C@@H](CC(N)=O)C(=O)N[C@@H](CCCNC(=N)N)C(=O)N[C@@H](CCCNC(=N)N)C(=O)N[C@@H](CCSC)C(=O)N[C@@H](CCCCN)C(=O)N[C@@H](Cc1c[nH]c2ccccc12)C(=O)N[C@@H](CCCCN)C(=O)N[C@@H](CCCCN)C(N)=O`, the inhibition of growth at 100 µM in the experiment on Cryptococcus neoformans [1] and in the experiment on Candida albicans [4] was 100% throughout. The inhibition of growth at 50 µM came out at 93.4% with Candida albicans [2] and 87.3% with Cryptococcus neoformans [9]. The inhibition of growth at 12.5 µM was 74.3% in the experiment with Cryptococcus neoformans [3] and 3.85% with Candida albicans [8]. Besides, the inhibition of growth at 200 µM with Candida albicans [5] and in the experiment on Cryptococcus neoformans [11] was 100% each time. Besides, the inhibition of growth at 25 µM with Cryptococcus neoformans [6] amounted to 85.9%; in the experiment with Candida albicans [12], 4.86%. Also, the inhibition of growth at 6.25 µM in the experiment with Candida albicans [7] was found to be 0.9%; in the experiment on Cryptococcus neoformans [10], 51%.

In the case of `CC[C@H](C)[C@H](NC(=O)[C@H](CCCCN)NC(=O)[C@@H]1CCCN1C(=O)[C@H](CCC(N)=O)NC(=O)[C@@H](N)CCCNC(=N)N)C(=O)N[C@H](Cc1c[nH]c2ccccc12)C(=O)N[C@@H](Cc1ccccc1)C(=O)N1CCC[C@H]1C(=O)N[C@@H](CC(N)=O)C(=O)N[C@@H](CCCNC(=N)N)C(=O)N[C@@H](CCCNC(=N)N)C(=O)N[C@@H](CCCCN)C(=O)N1CCC[C@H]1C(=O)N[C@@H](Cc1c[nH]c2ccccc12)C(=O)N[C@@H](CCCCN)C(=O)N[C@@H](CCCCN)C(N)=O`, the inhibition of growth at 100 µM with Cryptococcus neoformans [1] and in the experiment with Candida albicans [4] was 100% throughout. Besides, the inhibition of growth at 50 µM in the experiment with Candida albicans [2] turned out to be 41.4%; in the experiment with Cryptococcus neoformans [9] it was 100%. Moreover, the values for the inhibition of growth at 12.5 µM with Cryptococcus neoformans [3] and in the experiment on Candida albicans [8] were 100% and 6.1%, respectively. Besides, the inhibition of growth at 200 µM with Candida albicans [5] and in the experiment with Cryptococcus neoformans [11] was 100% each time. The values for the inhibition of growth at 25 µM with Cryptococcus neoformans [6] and with Candida albicans [12] were 100% and 15.4%, respectively. The inhibition of growth at 6.25 µM with Candida albicans [7] worked out at 0%; in the experiment with Cryptococcus neoformans [10], 79.9%.

For `C[C@@H]1[C@H](O)[C@@H](C)/C=C/C=C/C=C/C=C/C=C/C=C/C=C/[C@H](O[C@@H]2O[C@H](C)[C@@H](O)[C@H](N)[C@@H]2O)C[C@@H]2O[C@](O)(C[C@@H](O)C[C@@H](O)[C@H](O)CC[C@@H](O)C[C@@H](O)CC(=O)O[C@H]1C)C[C@H](O)[C@H]2C(=O)O` [AMPHOTERICIN B], the inhibition of growth at 100 µM in the experiment with Cryptococcus neoformans [1] and in the experiment with Candida albicans [4] was 100% each time. The inhibition of growth at 50 µM in the experiment with Candida albicans [2] and in the experiment with Cryptococcus neoformans [9] was 100% each time. Further, the inhibition of growth at 12.5 µM in the experiment with Cryptococcus neoformans [3] and with Candida albicans [8] was 100% in each case. Also, the inhibition of growth at 200 µM in the experiment with Candida albicans [5] and in the experiment with Cryptococcus neoformans [11] was 100% in each case. The inhibition of growth at 25 µM with Cryptococcus neoformans [6] and with Candida albicans [12] was 100% throughout. The inhibition of growth at 6.25 µM with Candida albicans [7] and in the experiment with Cryptococcus neoformans [10] was 100% throughout.

As for `CC(=O)N1CCN(c2ccc(OCC3COC(Cn4ccnc4)(c4ccc(Cl)cc4Cl)O3)cc2)CC1` (configuration not stated) [KETOCONAZOLE], the inhibition of growth at 100 µM in the experiment on Cryptococcus neoformans [1] and in the experiment with Candida albicans [4] was 100% each time. Besides, the inhibition of growth at 50 µM in the experiment with Candida albicans [2] and in the experiment with Cryptococcus neoformans [9] was 100% throughout. For the same compound, the inhibition of growth at 12.5 µM in the experiment with Cryptococcus neoformans [3] and in the experiment with Candida albicans [8] was 100% each time. Also, the inhibition of growth at 200 µM with Candida albicans [5] and in the experiment on Cryptococcus neoformans [11] was 100% each time. Further, the inhibition of growth at 25 µM in the experiment with Cryptococcus neoformans [6] and in the experiment with Candida albicans [12] was 100% each time. For the same compound, the inhibition of growth at 6.25 µM in the experiment on Candida albicans [7] and with Cryptococcus neoformans [10] was 100% in each case.

As for `CC[C@H](C)[C@H](NC(=O)[C@H](CCCCN)NC(=O)[C@@H](NC(=O)[C@H](CCC(N)=O)NC(=O)[C@@H](N)CCCNC(=N)N)[C@@H](C)CC)C(=O)N[C@@H](Cc1c[nH]c2ccccc12)C(=O)N[C@@H](Cc1ccccc1)C(=O)N[C@@H](CCC(N)=O)C(=O)N[C@@H](CC(N)=O)C(=O)N[C@@H](CCCNC(=N)N)C(=O)N[C@@H](CCCNC(=N)N)C(=O)N[C@@H](CCSC)C(=O)N[C@@H](CCCCN)C(=O)N[C@@H](Cc1c[nH]c2ccccc12)C(=O)N[C@@H](CCCCN)C(=O)N[C@@H](CCCCN)C(N)=O` [PENETRATIN], the inhibition of growth at 100 µM in the experiment with Cryptococcus neoformans [1] and with Candida albicans [4] was 100% in each case. Further, the inhibition of growth at 50 µM amounted to 95% with Candida albicans [2] and 100% in the experiment on Cryptococcus neoformans [9]. Moreover, the inhibition of growth at 12.5 µM in the experiment with Cryptococcus neoformans [3] is 90%; with Candida albicans [8], 4%. Moreover, the inhibition of growth at 200 µM with Candida albicans [5] and with Cryptococcus neoformans [11] was 100% throughout. In addition, the results for the inhibition of growth at 25 µM with Cryptococcus neoformans [6] and in the experiment on Candida albicans [12] were 100% and 91%, respectively. Further, the inhibition of growth at 6.25 µM in the experiment with Candida albicans [7] is 0%; in the experiment with Cryptococcus neoformans [10] it was 60%.

Regarding H-KKWKMRRNQFWIKIQR-NH2, the inhibition of growth at 100 µM in the experiment on Cryptococcus neoformans [1] and in the experiment on Candida albicans [4] was 100% in each case. Further, the inhibition of growth at 50 µM in the experiment on Candida albicans [2] was 100%; with Cryptococcus neoformans [9], 99%. In addition, the inhibition of growth at 12.5 µM turned out to be 89.5% in the experiment on Cryptococcus neoformans [3] and 12% with Candida albicans [8]. The inhibition of growth at 200 µM with Candida albicans [5] and in the experiment with Cryptococcus neoformans [11] was 100% in each case. Further, the inhibition of growth at 25 µM in the experiment with Cryptococcus neoformans [6] stood at 94.1%; in the experiment on Candida albicans [12], 25.8%. Further, the figures for the inhibition of growth at 6.25 µM in the experiment with Candida albicans [7] and in the experiment with Cryptococcus neoformans [10] were 0% and 55.9%, respectively.
